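The compound was tested at five concentrations on cells cultured in 96-well plates, with a 48-hour exposure period. Here, GI50 denotes the concentration required for 50% inhibition of growth. TGI: total growth inhibition.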
Columns and labels:
Experiment in all cases: growth of human tumour cells (NCI), 48 h
ACHN renal = test system: ACHN renal
SK-MEL-2 melanoma = test system: SK-MEL-2 melanoma
SK-MEL-5 melanoma = test system: SK-MEL-5 melanoma
MALME-3M melanoma = test system: MALME-3M melanoma
SF-295 CNS = test system: SF-295 CNS
OVCAR-3 ovarian = test system: OVCAR-3 ovarian
COLO 205 colon = test system: COLO 205 colon
SW-620 colon = test system: SW-620 colon
HOP-92 NSCLC = test system: HOP-92 NSCLC
NCI-H23 lung = test system: NCI-H23 lung

Q: `CO/N=C/c1cc(OC)c(OC)c(OC)c1` was tested. Which TGI (ACHN renal) did it give?
A: > 100 µM

Q: And the TGI (SK-MEL-2 melanoma)?
A: > 100 µM

Q: What about the TGI (SK-MEL-5 melanoma) of the same compound?
A: > 100 µM

Q: What about the TGI (MALME-3M melanoma) of the same compound?
A: > 100 µM

Q: What about the TGI (SF-295 CNS) of the same compound?
A: > 100 µM

Q: And the TGI (OVCAR-3 ovarian)?
A: > 100 µM

Q: And the TGI (COLO 205 colon)?
A: > 100 µM

Q: And the TGI (SW-620 colon)?
A: > 100 µM

Q: And the TGI (HOP-92 NSCLC)?
A: > 100 µM

Q: And the TGI (NCI-H23 lung)?
A: > 100 µM

Q: What does the source list for `CCCCCCCCCCCCOC1C(C(COC2OC(C3COC(C)(C)O3)C3OC(C)(C)OC23)NC(=O)Nc2ccc(C(=O)O)cc2)OC2OC(C)(C)OC21` (stereo not given)?
A: GI50 (ACHN renal): 3.56 µM; TGI (ACHN renal): 12.2 µM; GI50 (SK-MEL-2 melanoma): 2.23 µM; TGI (SK-MEL-2 melanoma): 4.82 µM; GI50 (SK-MEL-5 melanoma): 1.75 µM; TGI (SK-MEL-5 melanoma): 3.4 µM; GI50 (MALME-3M melanoma): 2.88 µM; TGI (MALME-3M melanoma): 6.91 µM; GI50 (SF-295 CNS): 2.15 µM; TGI (SF-295 CNS): 5.69 µM; GI50 (OVCAR-3 ovarian): 2.48 µM; TGI (OVCAR-3 ovarian): 7.49 µM; GI50 (COLO 205 colon): 2.71 µM; TGI (COLO 205 colon): 9.05 µM; GI50 (SW-620 colon): 3.26 µM; TGI (SW-620 colon): 11 µM; GI50 (HOP-92 NSCLC): 2.55 µM; TGI (HOP-92 NSCLC): 8.04 µM; GI50 (NCI-H23 lung): 2.64 µM; TGI (NCI-H23 lung): 6.83 µM

Q: With `Cc1cc(CC(O)c2ccc(Cl)c(Cl)c2)nc(=O)[nH]1` (stereo not given) as the compound, how does the TGI (ACHN renal) read?
A: > 100 µM

Q: What about the TGI (SK-MEL-2 melanoma) of the same compound?
A: > 100 µM

Q: What about the TGI (SK-MEL-5 melanoma) of the same compound?
A: > 100 µM

Q: And the TGI (MALME-3M melanoma)?
A: > 100 µM

Q: What about the TGI (SF-295 CNS) of the same compound?
A: 90 µM

Q: What about the TGI (OVCAR-3 ovarian) of the same compound?
A: > 100 µM

Q: What about the TGI (COLO 205 colon) of the same compound?
A: 85.2 µM

Q: And the TGI (SW-620 colon)?
A: > 100 µM

Q: What about the TGI (HOP-92 NSCLC) of the same compound?
A: 49.5 µM

Q: What about the TGI (NCI-H23 lung) of the same compound?
A: > 100 µM

Q: How did the GI50 (ACHN renal) turn out when `O=C1NC(=O)C(c2cnc3ccccn23)=C1c1cn2c3c(cc(F)cc13)CN(C(=O)N1CCCCC1)CC2` was run?
A: 1.37 µM

Q: What about the TGI (ACHN renal) of the same compound?
A: > 72.5 µM

Q: What about the GI50 (SK-MEL-2 melanoma) of the same compound?
A: 8.8 µM

Q: And the TGI (SK-MEL-2 melanoma)?
A: 27.2 µM

Q: And the GI50 (SK-MEL-5 melanoma)?
A: 2.81 µM

Q: What about the TGI (SK-MEL-5 melanoma) of the same compound?
A: 16.8 µM

Q: What about the GI50 (MALME-3M melanoma) of the same compound?
A: 30.7 µM

Q: And the TGI (MALME-3M melanoma)?
A: 60.8 µM

Q: And the GI50 (SF-295 CNS)?
A: 0.142 µM

Q: What about the TGI (SF-295 CNS) of the same compound?
A: 33.9 µM

Q: What about the GI50 (OVCAR-3 ovarian) of the same compound?
A: 11.8 µM

Q: And the TGI (OVCAR-3 ovarian)?
A: 44 µM

Q: And the GI50 (COLO 205 colon)?
A: 11.4 µM

Q: And the TGI (COLO 205 colon)?
A: 36.9 µM

Q: And the GI50 (SW-620 colon)?
A: 14.2 µM

Q: What about the TGI (SW-620 colon) of the same compound?
A: 45.8 µM

Q: And the GI50 (HOP-92 NSCLC)?
A: 14.8 µM

Q: And the TGI (HOP-92 NSCLC)?
A: 38.1 µM

Q: And the GI50 (NCI-H23 lung)?
A: 17.2 µM

Q: And the TGI (NCI-H23 lung)?
A: 52.3 µM

Q: What does the source list for `CCC[CH2][Sn]1([CH2]CCC)[O]N=C(c2ccccc2)C(c2ccccc2)[O]1` (stereo not given)?
A: GI50 (ACHN renal): 1.72 µM; TGI (ACHN renal): 3.1 µM; GI50 (SK-MEL-2 melanoma): 1.27 µM; TGI (SK-MEL-2 melanoma): 2.53 µM; GI50 (SK-MEL-5 melanoma): 1.62 µM; TGI (SK-MEL-5 melanoma): 3.23 µM; GI50 (MALME-3M melanoma): 1.13 µM; TGI (MALME-3M melanoma): 2.49 µM; GI50 (SF-295 CNS): 1.73 µM; TGI (SF-295 CNS): 3.41 µM; GI50 (OVCAR-3 ovarian): 1.42 µM; TGI (OVCAR-3 ovarian): 2.84 µM; GI50 (COLO 205 colon): 1.53 µM; TGI (COLO 205 colon): 2.92 µM; GI50 (SW-620 colon): 0.989 µM; TGI (SW-620 colon): 2.27 µM; GI50 (HOP-92 NSCLC): 1.54 µM; TGI (HOP-92 NSCLC): 2.96 µM; GI50 (NCI-H23 lung): 1.28 µM; TGI (NCI-H23 lung): 2.64 µM

Q: Which GI50 (ACHN renal) does the source give for `CCCCCCNC(=O)c1cc(NCc2cc(O)ccc2O)ccc1O` here?
A: 4.02 µM

Q: What about the TGI (ACHN renal) of the same compound?
A: 15.7 µM

Q: And the GI50 (SK-MEL-2 melanoma)?
A: 11.9 µM

Q: What about the TGI (SK-MEL-2 melanoma) of the same compound?
A: 34.5 µM

Q: And the GI50 (SK-MEL-5 melanoma)?
A: 11.8 µM

Q: And the TGI (SK-MEL-5 melanoma)?
A: 25.4 µM

Q: What about the GI50 (MALME-3M melanoma) of the same compound?
A: 2.74 µM

Q: And the TGI (MALME-3M melanoma)?
A: 8.29 µM

Q: What about the GI50 (SF-295 CNS) of the same compound?
A: 19.4 µM

Q: What about the TGI (SF-295 CNS) of the same compound?
A: 49.2 µM

Q: What about the GI50 (OVCAR-3 ovarian) of the same compound?
A: 2.76 µM

Q: And the TGI (OVCAR-3 ovarian)?
A: 13 µM

Q: And the GI50 (COLO 205 colon)?
A: 10.8 µM

Q: And the TGI (COLO 205 colon)?
A: 28.6 µM

Q: What about the GI50 (SW-620 colon) of the same compound?
A: 8.75 µM

Q: What about the TGI (SW-620 colon) of the same compound?
A: 33.1 µM

Q: What about the GI50 (HOP-92 NSCLC) of the same compound?
A: 1.66 µM

Q: What about the TGI (HOP-92 NSCLC) of the same compound?
A: 5.03 µM

Q: What about the GI50 (NCI-H23 lung) of the same compound?
A: 13.1 µM

Q: And the TGI (NCI-H23 lung)?
A: 33.1 µM

Q: What does the source list for `CCOc1ccccc1C=C1c2ccccc2C(=O)c2ccccc21`?
A: TGI (ACHN renal): > 100 µM; TGI (SK-MEL-2 melanoma): 11.9 µM; TGI (SK-MEL-5 melanoma): 20.8 µM; TGI (MALME-3M melanoma): > 100 µM; TGI (SF-295 CNS): > 100 µM; TGI (OVCAR-3 ovarian): 10.5 µM; TGI (COLO 205 colon): 17.4 µM; TGI (SW-620 colon): 41.4 µM; TGI (HOP-92 NSCLC): 72.9 µM; TGI (NCI-H23 lung): > 100 µM

Q: Which results are given for `CC(O)CCC(=O)c1ccoc1` (stereo not given)?
A: TGI (ACHN renal): > 10000 µM; TGI (SK-MEL-2 melanoma): > 8110 µM; TGI (SK-MEL-5 melanoma): 8030 µM; TGI (MALME-3M melanoma): > 8380 µM; TGI (SF-295 CNS): > 10000 µM; TGI (OVCAR-3 ovarian): 9960 µM; TGI (COLO 205 colon): > 8250 µM; TGI (SW-620 colon): > 10000 µM; TGI (HOP-92 NSCLC): 8000 µM; TGI (NCI-H23 lung): > 10000 µM

Q: Which results are given for `COc1cc(C#CC(=O)OC/C=C/c2ccc3c(c2)OCO3)cc(OC)c1OC`?
A: TGI (ACHN renal): > 100 µM; TGI (SK-MEL-2 melanoma): 25.4 µM; TGI (SK-MEL-5 melanoma): 32.8 µM; TGI (MALME-3M melanoma): 47.7 µM; TGI (SF-295 CNS): > 100 µM; TGI (OVCAR-3 ovarian): 63.3 µM; TGI (COLO 205 colon): 35.7 µM; TGI (SW-620 colon): 80.6 µM; TGI (HOP-92 NSCLC): 54.5 µM; TGI (NCI-H23 lung): 58.5 µM

— PubChem BioAssay (NCI)
